Patent US20250059198A1, “BRM DEGRADING COMPOUNDS AND ASSOCIATED METHODS OF USE” (Arvinas Operations, Inc., priority 2021, published 2025)

Biological target: T1, BRM (Homo sapiens, UniProt P51531)
T1 construct: Western Blot Screen of BRM Degradation in SW1573 Cells; endogenous in cells; host or cells: SW1573 cells
Experiment: BRM degradation (Dmax and DC50) in SW1573 cells, Western blot screen / In-Cell Western screen
Type: cell-based
Settings: overnight (18-20 hours) treatment; for Dmax: read-out: Dmax (%)** (% degraded)
Procedure, shortened: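 SW1573 cells were treated with compound for 18–20 h (final 0.1% DMSO). BRM was quantified either by Western blot of RIPA lysates or by fixed-cell In-Cell Western (LI-COR, 800/680 nm), each normalised to alpha-tubulin, giving Dmax and DC50.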

T1 sequence (P51531 whole entry): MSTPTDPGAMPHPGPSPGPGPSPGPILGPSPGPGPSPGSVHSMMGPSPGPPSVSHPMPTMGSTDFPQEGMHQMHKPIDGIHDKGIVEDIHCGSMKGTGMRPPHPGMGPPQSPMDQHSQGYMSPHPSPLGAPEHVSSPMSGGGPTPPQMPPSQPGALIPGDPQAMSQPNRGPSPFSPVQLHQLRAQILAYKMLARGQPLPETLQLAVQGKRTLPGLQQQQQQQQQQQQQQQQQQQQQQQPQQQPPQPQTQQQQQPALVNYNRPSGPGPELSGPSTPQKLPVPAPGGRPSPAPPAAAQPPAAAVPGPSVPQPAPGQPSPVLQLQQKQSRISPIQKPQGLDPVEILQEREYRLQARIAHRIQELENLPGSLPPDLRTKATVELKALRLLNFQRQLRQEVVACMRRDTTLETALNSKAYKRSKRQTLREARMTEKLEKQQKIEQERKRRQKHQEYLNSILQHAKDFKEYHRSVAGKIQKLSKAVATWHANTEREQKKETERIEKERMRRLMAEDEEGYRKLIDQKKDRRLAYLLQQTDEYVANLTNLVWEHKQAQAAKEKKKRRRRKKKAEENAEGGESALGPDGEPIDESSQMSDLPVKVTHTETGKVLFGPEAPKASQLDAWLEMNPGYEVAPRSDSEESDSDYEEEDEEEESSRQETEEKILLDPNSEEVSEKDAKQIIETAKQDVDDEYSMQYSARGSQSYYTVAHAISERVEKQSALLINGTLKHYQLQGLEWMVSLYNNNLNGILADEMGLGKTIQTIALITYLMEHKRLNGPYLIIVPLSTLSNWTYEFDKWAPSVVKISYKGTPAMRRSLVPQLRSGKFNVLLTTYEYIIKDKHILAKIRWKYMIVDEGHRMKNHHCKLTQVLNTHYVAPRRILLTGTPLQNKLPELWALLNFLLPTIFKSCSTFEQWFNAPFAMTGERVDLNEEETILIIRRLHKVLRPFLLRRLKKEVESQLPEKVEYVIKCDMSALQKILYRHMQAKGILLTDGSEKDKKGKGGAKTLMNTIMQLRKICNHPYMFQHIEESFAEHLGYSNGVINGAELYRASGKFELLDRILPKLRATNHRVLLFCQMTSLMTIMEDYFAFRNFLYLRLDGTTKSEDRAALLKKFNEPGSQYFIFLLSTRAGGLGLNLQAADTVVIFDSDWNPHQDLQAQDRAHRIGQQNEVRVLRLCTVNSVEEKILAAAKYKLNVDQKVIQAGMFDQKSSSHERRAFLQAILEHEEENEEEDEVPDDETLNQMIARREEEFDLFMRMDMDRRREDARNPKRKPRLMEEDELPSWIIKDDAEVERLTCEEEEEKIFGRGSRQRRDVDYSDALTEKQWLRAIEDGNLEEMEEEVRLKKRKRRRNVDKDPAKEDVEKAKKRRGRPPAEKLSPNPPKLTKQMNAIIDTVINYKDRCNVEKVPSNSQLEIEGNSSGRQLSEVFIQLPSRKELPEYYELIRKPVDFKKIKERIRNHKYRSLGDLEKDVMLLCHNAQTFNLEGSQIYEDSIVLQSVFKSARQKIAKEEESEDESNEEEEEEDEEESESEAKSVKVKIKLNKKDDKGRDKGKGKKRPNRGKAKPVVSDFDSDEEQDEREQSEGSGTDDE

Dmax [%]	SMILES	DC50 [nM]
–	CC(C)[C@H](C(=O)N1C[C@H](O)C[C@H]1C(=O)N[C@@H](C)c1ccc(Cl)cc1)c1cc(N2CCC(CN3CCC(O[C@H]4C[C@H](Oc5cc(N6C7CCC6CN(c6cc(-c8ccccc8O)nnc6N)C7)ccn5)C4)CC3)CC2)no1 [Compound 46, (2S,4R)-N-[(1S)-1-(4-chlorophenyl)ethyl]-4-hydroxy-1-[(2S)-3-methyl-2-{3-[4-({4-[(1r,3r)-3-[(4-{3-[3-amino-6-(2-hydroxyphenyl)pyridazin-4-yl]-3,8-diazabicyclo[3.2.1]octan-8-yl}pyridin-2-yl)oxy]cyclobutoxy]piperidin-1-yl}methyl)piperidin-1-yl]-1,2-oxazol-5-yl}butanoyl]pyrrolidine-2-carboxamide]	≥ 30
> 75	Cc1ncsc1-c1ccc([C@H](C)NC(=O)[C@@H]2C[C@@H](O)CN2C(=O)[C@@H](c2cc(N3CCC(CN4CCC(OC(=O)N5CCN(c6cc(-c7ccccc7O)nnc6N)CC5)CC4)CC3)no2)C(C)C)cc1 [Compound 65, 1-[(1-{5-[(2R)-1-[(2S,4R)-4-hydroxy-2-{[(1S)-1-[4-(4-methyl-1,3-thiazol-5-yl)phenyl]ethyl]carbamoyl}pyrrolidin-1-yl]-3-methyl-1-oxobutan-2-yl]-1,2-oxazol-3-yl}piperidin-4-yl)methyl]piperidin-4-yl 4-[3-amino-6-(2-hydroxyphenyl)pyridazin-4-yl]piperazine-1-carboxylate]	< 2.5
–	CC(C)[C@H](C(=O)N1C[C@H](O)C[C@H]1C(=O)N[C@@H](C)c1ccc(C#N)cc1)c1cc(O[C@H]2C[C@H](CN3CCC(O[C@H]4C[C@H](Oc5cc(N6C7CCC6CN(c6cc(-c8ccccc8O)nnc6N)C7)ccn5)C4)CC3)C2)no1 [Compound 1, (2S,4R)-N-[(1S)-1-(4-cyanophenyl)ethyl]-4-hydroxy-1-[(2S)-3-methyl-2-{3-[(1r,3r)-3-({4-[(1r,3r)-3-[(4-{3-[3-amino-6-(2-hydroxyphenyl)pyridazin-4-yl]-3,8-diazabicyclo[3.2.1]octan-8-yl}pyridin-2-yl)oxy]cyclobutoxy]piperidin-1-yl}methyl)cyclobutoxy]-1,2-oxazol-5-yl}butanoyl]pyrrolidine-2-carboxamide]	≥ 30
> 75	Cc1ncsc1-c1ccc([C@H](C)NC(=O)[C@@H]2C[C@@H](O)CN2C(=O)[C@@H](c2cc(N3CCC(CN4CCC5(CC4)CC(n4cc(C#Cc6cc(-c7ccccc7O)nnc6N)cn4)C5)CC3)no2)C(C)C)cc1 [Compound 63, (2S,4R)-1-[(2R)-2-[3-(4-{[2-(4-{2-[3-amino-6-(2-hydroxyphenyl)pyridazin-4-yl]ethynyl}-1H-pyrazol-1-yl)-7-azaspiro[3.5]nonan-7-yl]methyl}piperidin-1-yl)-1,2-oxazol-5-yl]-3-methylbutanoyl]-4-hydroxy-N-[(1S)-1-[4-(4-methyl-1,3-thiazol-5-yl)phenyl]ethyl]pyrrolidine-2-carboxamide]	< 2.5
> 75	Cc1ncsc1-c1ccc([C@H](C)NC(=O)[C@H]2C[C@@H](O)CN2C(=O)[C@@H](c2cc(N3CCC(CN4CCC(O[C@H]5C[C@H](OC(=O)N6CCN(c7cc(-c8ccccc8O)nnc7N)CC6)C5)CC4)CC3)no2)C(C)C)cc1 [Compound 45, (1rs,3rs)-3-({1-[(1-{5-[(2R)-1-[(2S,4R)-4-hydroxy-2-{[(1S)-1-[4-(4-methyl-1,3-thiazol-5-yl)phenyl]ethyl]carbamoyl}pyrrolidin-1-yl]-3-methyl-1-oxobutan-2-yl]-1,2-oxazol-3-yl}piperidin-4-yl)methyl]piperidin-4-yl}oxy)cyclobutyl 4-[3-amino-6-(2-hydroxyphenyl)pyridazin-4-yl]piperazine-1-carboxylate]	< 2.5
> 75	CC(C)[C@@H](C(=O)N1C[C@H](O)C[C@H]1C(=O)N[C@@H](C)c1ccc(-c2ccnn2C)cc1)c1cc(N2CCC(OC3CCN(CC4CC(N5CCC([C@@H](C)n6cc(C#Cc7cc(-c8ccccc8O)nnc7N)cn6)CC5)C4)CC3)CC2)no1 (stereo partly drawn) [Compound 110, (2S,4R)-1-[(2R)-2-{3-[4-({1-[(3-{4-[(1R)-1-(4-{2-[3-amino-6-(2-hydroxyphenyl)pyridazin-4-yl]ethynyl}-1H-pyrazol-1-yl)ethyl]piperidin-1-yl}cyclobutyl)methyl]piperidin-4-yl}oxy)piperidin-1-yl]-1,2-oxazol-5-yl}-3-methylbutanoyl]-4-hydroxy-N-[(1S)-1-[4-(1-methyl-1H-pyrazol-5-yl)phenyl]ethyl]pyrrolidine-2-carboxamide]	< 2.5
–	CC(C)[C@H](C(=O)N1C[C@H](O)C[C@H]1C(=O)N[C@@H](C)c1ccc(C#N)cc1)c1cc(O[C@H]2C[C@H](C(C)(C)N3CCC(O[C@H]4C[C@H](Oc5cc(N6C7CCC6CN(c6cc(-c8ccccc8O)nnc6N)C7)ccn5)C4)CC3)C2)no1 [Compound 93, (2S,4R)-N-[(1S)-1-(4-cyanophenyl)ethyl]-4-hydroxy-1-[(2S)-3-methyl-2-{3-[(1r,3r)-3-(2-{4-[(1r,3r)-3-[(4-{3-[3-amino-6-(2-hydroxyphenyl)pyridazin-4-yl]-3,8-diazabicyclo[3.2.1]octan-8-yl}pyridin-2-yl)oxy]cyclobutoxy]piperidin-1-yl}propan-2-yl)cyclobutoxy]-1,2-oxazol-5-yl}butanoyl]pyrrolidine-2-carboxamide]	≥ 30
> 75	CC(C)[C@@H](C(=O)N1C[C@H](O)C[C@H]1C(=O)N[C@@H](C)c1ccc(-c2ccnn2C)cc1)c1cc(N2CCC(OC3CCN(CC4CC(N5CCC([C@H](C)n6cc(C#Cc7cc(-c8ccccc8O)nnc7N)cn6)CC5)C4)CC3)CC2)no1 (stereo partly drawn) [Compound 112, (2S,4R)-1-[(2R)-2-{3-[4-({1-[(3-{4-[(1S)-1-(4-{2-[3-amino-6-(2-hydroxyphenyl)pyridazin-4-yl]ethynyl}-1H-pyrazol-1-yl)ethyl]piperidin-1-yl}cyclobutyl)methyl]piperidin-4-yl}oxy)piperidin-1-yl]-1,2-oxazol-5-yl}-3-methylbutanoyl]-4-hydroxy-N-[(1S)-1-[4-(1-methyl-1H-pyrazol-5-yl)phenyl]ethyl]pyrrolidine-2-carboxamide]	< 2.5
–	CC(C)[C@@H](C(=O)N1C[C@H](O)C[C@H]1C(=O)N[C@@H](C)c1ccc(-c2scnc2C#CCOCCOCCOCCOc2cc(N3C4CCC3CN(c3cc(-c5ccccc5O)nnc3N)C4)ccn2)cc1)N1Cc2ccccc2C1=O [Compound 72, (2S,4R)-N-[(1S)-1-[4-(4-{3-[2-(2-{2-[(4-{3-[3-amino-6-(2-hydroxyphenyl)pyridazin-4-yl]-3,8-diazabicyclo[3.2.1]octan-8-yl}pyridin-2-yl)oxy]ethoxy}ethoxy)ethoxy]prop-1-yn-1-yl}-1,3-thiazol-5-yl)phenyl]ethyl]-4-hydroxy-1-[(2S)-3-methyl-2-(1-oxo-2,3-dihydro-1H-isoindol-2-yl)butanoyl]pyrrolidine-2-carboxamide]	≥ 30

SMILES	Dmax [%]	DC50 [nM]
Cc1ncsc1-c1ccc([C@H](C)NC(=O)[C@@H]2C[C@@H](O)CN2C(=O)[C@@H](c2cc(N3CCC(OC(=O)N4CCC(O[C@H]5C[C@H](Oc6cc(N7C8CCC7CN(c7cc(-c9ccccc9O)nnc7N)C8)ccn6)C5)CC4)CC3)no2)C(C)C)cc1 [Compound 117, 1-{5-[(2R)-1-[(2S,4R)-4-hydroxy-2-{[(1S)-1-[4-(4-methyl-1,3-thiazol-5-yl)phenyl]ethyl]carbamoyl}pyrrolidin-1-yl]-3-methyl-1-oxobutan-2-yl]-1,2-oxazol-3-yl}piperidin-4-yl 4-[(1r,3r)-3-[(4-{3-[3-amino-6-(2-hydroxyphenyl)pyridazin-4-yl]-3,8-diazabicyclo[3.2.1]octan-8-yl}pyridin-2-yl)oxy]cyclobutoxy]piperidine-1-carboxylate]	> 75	< 2.5
CC(C)[C@@H](C(=O)N1C[C@H](O)C[C@H]1C(=O)N[C@@H](C)c1ccc(C#N)cc1)c1cc(N2CCN(C(=O)N3CCC(O[C@H]4C[C@H](Oc5cc(N6C7CCC6CN(c6cc(-c8ccccc8O)nnc6N)C7)ccn5)C4)CC3)CC2)no1 [Compound 140, (2S,4R)-N-[(1S)-1-(4-cyanophenyl)ethyl]-4-hydroxy-1-[(2R)-3-methyl-2-[3-(4-{4-[(1r,3r)-3-[(4-{3-[3-amino-6-(2-hydroxyphenyl)pyridazin-4-yl]-3,8-diazabicyclo[3.2.1]octan-8-yl}pyridin-2-yl)oxy]cyclobutoxy]piperidine-1-carbonyl}piperazin-1-yl)-1,2-oxazol-5-yl]butanoyl]pyrrolidine-2-carboxamide]	> 75	< 2.5
Cc1ncsc1-c1ccc([C@H](C)NC(=O)[C@@H]2C[C@@H](O)CN2C(=O)[C@@H](c2cc(N3CCC(CN4CCC(O[C@H]5C[C@H](N6CCC(Cc7cnn(-c8cc(-c9ccccc9O)nnc8N)c7)CC6)C5)CC4)CC3)no2)C(C)C)cc1 [Compound 105, (2S,4R)-4-hydroxy-N-[(1S)-1-[4-(4-methyl-1,3-thiazol-5-yl)phenyl]ethyl]-1-[(2R)-3-methyl-2-{3-[4-({4-[(1r,3r)-3-[4-({1-[3-amino-6-(2-hydroxyphenyl)pyridazin-4-yl]-1H-pyrazol-4-yl}methyl)piperidin-1-yl]cyclobutoxy]piperidin-1-yl}methyl)piperidin-1-yl]-1,2-oxazol-5-yl}butanoyl]pyrrolidine-2-carboxamide]	> 75	< 2.5
CC(C)[C@@H](C(=O)N1C[C@H](O)C[C@H]1C(=O)N[C@@H](C)c1ccc(-c2ccnn2C)cc1)c1cc(N2CCC(CN3CCC4(CC3)CC(N3CCO[C@@H](CN5C6CCC5CN(c5cc(-c7ccccc7O)nnc5N)C6)C3)C4)CC2)no1 [Compound 106, (2S,4R)-1-[(2R)-2-{3-[4-({2-[(2R)-2-({3-[3-amino-6-(2-hydroxyphenyl)pyridazin-4-yl]-3,8-diazabicyclo[3.2.1]octan-8-yl}methyl)morpholin-4-yl]-7-azaspiro[3.5]nonan-7-yl}methyl)piperidin-1-yl]-1,2-oxazol-5-yl}-3-methylbutanoyl]-4-hydroxy-N-[(1S)-1-[4-(1-methyl-1H-pyrazol-5-yl)phenyl]ethyl]pyrrolidine-2-carboxamide]	> 75	< 2.5
